Format in all cases: functional, cell-based
One test has as its system RKO. Briefly: Cytotoxicity against human RKO cells after 24 hrs by MTT assay.
In a further test the test system is SW-620. Put plainly: Cytotoxicity against human SW620 cells after 24 hrs by MTT assay. The note with it: SW-620, 24 h. A general note: Tetrazolium dyes change colour on reduction, which living cells bring about.
A further test concerns LoVo. Put plainly: Cytotoxicity against human LoVo cells after 24 hrs by MTT assay.

The structures appear in SMILES notation. pIC50: −log10 of the molar value.

One may read the pIC50 as the negative decadic logarithm of the IC50, by convention in mol/L. Read a high pIC50 as a small IC50. With `C=C(C)[C@@]12O[C@@]3(c4ccccc4)O[C@@H]1[C@@H]1[C@@H]4O[C@]4(CO)[C@@H](O)[C@]4(O)C(=O)C(C)=C[C@H]4[C@@]1(O3)[C@H](C)[C@H]2OC(=O)c1ccccc1`, the pIC50 in the test with RKO, with SW-620 and in the test with LoVo was less than 5.00 each time.
As for `C=C(C)[C@@]12O[C@@]3(/C=C/C=C\CCCCC)O[C@@H]1[C@@H]1[C@@H]4O[C@]4(CO)[C@@H](O)[C@]4(O)C(=O)C(C)=C[C@H]4[C@@]1(O3)[C@H](C)[C@H]2OC(C)=O`, the pIC50 in the test on RKO, in the test with SW-620 and with LoVo was less than 5.00 each time.
In the case of `C=C(C)[C@@]12O[C@@]3(/C=C/C=C/CCCCC)O[C@@H]1[C@@H]1[C@@H]4O[C@]4(CO)[C@@H](O)[C@]4(O)C(=O)C(C)=C[C@H]4[C@@]1(O3)[C@H](C)[C@H]2OC(=O)c1ccccc1` [GNIDILATIDIN], the values for the pIC50 with RKO and in the test on SW-620 were 5.19 and 5.37, respectively.
Take `C=C(C)[C@@]1(O)[C@H](OC(=O)/C=C/C=C/CCCCC)[C@@H]2[C@H](O)[C@@](O)(CO)[C@@H](O)[C@]3(O)C(=O)C(C)=C[C@H]3[C@@]2(O)[C@H](C)[C@H]1OC(C)=O`: the negative logarithm of the IC50 (pIC50) in the test with RKO, in the test on SW-620 and with LoVo was less than 5.00 in each case.
`C=C(C)[C@@]12O[C@@]3(/C=C/C=C/CCCCC)O[C@@H]1[C@@H]1[C@@H]4O[C@]4(CO)[C@@H](O)[C@]4(O)C(=O)C(C)=C[C@H]4[C@@]1(O3)[C@H](C)[C@H]2OC(=O)CC`: the pIC50 in the test on RKO, in the test on SW-620 and in the test on LoVo was less than 5.00 in each case.
On to `C=C(C)[C@@]1(O)[C@H](O)[C@@H]2[C@@H]3O[C@]3(CO)[C@@H](O)[C@]3(O)C(=O)C(C)=C[C@H]3[C@@]2(O)[C@H](C)[C@H]1OC(C)=O`, for which the negative logarithm of the IC50 (pIC50) in the test on RKO, in the test with SW-620 and in the test with LoVo was less than 5.00 in each case.
As for `C=C(C)[C@@]1(O)[C@H](OC(=O)/C=C/C=C/CCCCC)[C@@H]2[C@@H]3O[C@]3(CO)[C@@H](O)[C@]3(O)C(=O)C(C)=C[C@H]3[C@@]2(O)[C@H](C)[C@H]1OC(C)=O`, the pIC50 with RKO, in the test with SW-620 and in the test on LoVo was less than 5.00 in each case.
For `O=c1[nH]cc(F)c(=O)[nH]1` [FLUOROURACIL], the pIC50 with RKO is less than 5.00; in the test on SW-620, 5.00.
As to `C=C(C)[C@@]12O[C@@]3(/C=C/C=C\CCCCC)O[C@@H]1[C@@H]1[C@@H]4O[C@]4(CO)[C@@H](O)[C@]4(O)C(=O)C(C)=C[C@H]4[C@@]1(O3)[C@H](C)[C@H]2OC(=O)c1ccccc1`, the pIC50 with RKO is less than 5.00; in the test with SW-620, 5.07.
On to `C=C(C)[C@@]12O[C@@]3(/C=C/C=C/CCCCC)O[C@@H]1[C@@H]1[C@@H]4O[C@]4(CO)[C@@H](O)[C@]4(O)C(=O)C(C)=C[C@H]4[C@@]1(O3)[C@H](C)[C@H]2OC(=O)CCC`, for which the pIC50 is 5.01 in the test on RKO and 5.28 with SW-620.
In the case of `C=C(C)[C@@]12O[C@@]3(c4ccccc4)O[C@@H]1[C@@H]1[C@@H]4O[C@]4(CO)[C@@H](O)[C@]4(O)C(=O)C(C)=C[C@H]4[C@@]1(O3)[C@H](C)[C@H]2OC(=O)CCC`, the pIC50 in the test with RKO, with SW-620 and with LoVo was less than 5.00 in each case.
Regarding `C=C(C)[C@@]12O[C@@]3(c4ccccc4)O[C@@H]1[C@@H]1[C@@H]4O[C@]4(CO)[C@@H](O)[C@]4(O)C(=O)C(C)=C[C@H]4[C@@]1(O3)[C@H](C)[C@H]2OC(C)=O`, the pIC50 with RKO, with SW-620 and in the test with LoVo was less than 5.00 each time.
Regarding `C=C(C)[C@@]12O[C@@]3(c4ccccc4)O[C@@H]1[C@@H]1[C@@H]4O[C@]4(CO)[C@@H](O)[C@]4(O)C(=O)C(C)=C[C@H]4[C@@]1(O3)[C@H](C)[C@H]2OC(=O)C(C)C`, the negative logarithm of the IC50 (pIC50) in the test with RKO, in the test on SW-620 and in the test with LoVo was less than 5.00 throughout.
As for `C=C(C)[C@@]12O[C@@]3(/C=C/C=C/CCCCC)O[C@@H]1[C@@H]1[C@@H]4O[C@]4(CO)[C@@H](O)[C@]4(O)C(=O)C(C)=C[C@H]4[C@@]1(O3)[C@H](C)[C@H]2OC(C)=O` [YUANHUADINE], the pIC50 with RKO, in the test on SW-620 and with LoVo was less than 5.00 in each case.
In the case of `C=C(C)[C@@]1(O)[C@H](OC(=O)/C=C/C=C/CCCCC)[C@@H]2[C@@H]3O[C@]3(CO)[C@@H](O)[C@]3(O)C(=O)C(C)=C[C@H]3[C@@]2(O)[C@H](C)[C@H]1OC(=O)c1ccccc1` [YUANHUAOATE E], the negative logarithm of the IC50 (pIC50) in the test with RKO, in the test with SW-620 and in the test on LoVo was less than 5.00 in each case.
Take `C=C(C)[C@@]1(O)[C@H](OC(=O)/C=C/C=C/C=C/CCC)[C@@H]2[C@@H]3O[C@]3(CO)[C@@H](O)[C@]3(O)C(=O)C(C)=C[C@H]3[C@@]2(O)[C@H](C)[C@H]1OC(C)=O`: the pIC50 in the test with RKO, in the test on SW-620 and in the test with LoVo was less than 5.00 in each case.
As to `C=C(C)[C@@]1(O)[C@H](OC(=O)/C=C/C=C/CCCCC)[C@@H]2[C@H](O)[C@@](O)(CO)[C@@H](O)[C@]3(O)C(=O)C(C)=C[C@H]3[C@@]2(O)[C@H](C)[C@H]1OC(=O)c1ccccc1`, the negative logarithm of the IC50 (pIC50) in the test with RKO, in the test on SW-620 and in the test on LoVo was less than 5.00 throughout.
As for `C=C(C)[C@@]12O[C@@]3(/C=C/C=C/C=C\CCC)O[C@@H]1[C@@H]1[C@@H]4O[C@]4(CO)[C@@H](O)[C@]4(O)C(=O)C(C)=C[C@H]4[C@@]1(O3)[C@H](C)[C@H]2OC(C)=O`, the negative-log IC50 (pIC50) in the test on RKO, with SW-620 and in the test with LoVo was less than 5.00 in each case.
For the compound `C=C(C)[C@@]12O[C@@]3(/C=C/C=C/CCCCC)O[C@@H]1[C@@H]1[C@@H]4O[C@]4(CO)[C@@H](O)[C@]4(O)C(=O)C(C)=C[C@H]4[C@@]1(O3)[C@H](C)[C@H]2OC(=O)C(C)C`, the pIC50 with RKO, with SW-620 and in the test with LoVo was less than 5.00 in each case.
With `C=C(C)[C@@]12O[C@@]3(c4ccccc4)O[C@@H]1[C@@H]1[C@H](O)[C@@](O)(CO)[C@@H](O)[C@]4(O)C(=O)C(C)=C[C@H]4[C@@]1(O3)[C@H](C)[C@H]2OC(=O)c1ccccc1`, the negative logarithm of the IC50 (pIC50) in the test with RKO, with SW-620 and in the test with LoVo was less than 5.00 each time.
In the case of `C=C(C)[C@@]12O[C@@]3(/C=C/C=C/CCCCC)O[C@@H]1[C@@H]1[C@@H]4O[C@]4(CO)[C@@H](O)[C@]4(O)C(=O)C(C)=C[C@H]4[C@@]1(O3)[C@H](C)[C@H]2O`, the pIC50 in the test with RKO, in the test on SW-620 and with LoVo was less than 5.00 in each case.
In the case of `C=C(C)[C@@]12O[C@@]3(/C=C/C=C/C=C\CCC)O[C@@H]1[C@@H]1[C@@H]4O[C@]4(CO)[C@@H](O)[C@]4(O)C(=O)C(C)=C[C@H]4[C@@]1(O3)[C@H](C)[C@H]2OC(=O)c1ccccc1`, the pIC50 in the test with RKO, with SW-620 and in the test on LoVo was less than 5.00 throughout.
